Test results published in publication PMC5587909, “Inhibition of the ATP Synthase Eliminates the Intrinsic Resistance of Staphylococcus aureus towards Polymyxins” (mBio, 2017).
≈ marks a conversion by molar mass, not a printed value. Bridge positions count the residues as written; N and C are the ends. Square brackets hold non-standard residues; d marks the D form. Peptide text beside a SMILES is read from it. * marks the point of attachment. X1 = CC[C@H](C)CCCCC(=O)*; Dab = NCC[C@H](N)C(=O)O

Columns and labels:
Assay type in all cases: cell-based, Staphylococcus aureus
[1] = tested on: S. aureus JE2 atpB transposon mutant (SAUSA300_2064); settings: Etest on TSA
From the text: (§1) Staphylococcus aureus is intrinsically resistant to the clinically approved cationic antimicrobial peptides polymyxin B (PMB) and colistin ([1], [16]). […] The MIC for PMB was subsequently determined using Etests for the identified mutants. Nineteen mutants were confirmed to be at least 2-fold more susceptible than the WT (Table 1). As expected, we identified transposon insertions in graS, graR, vraF, and vraG, corroborating previous work on these determinants in S. aureus in relation to increased PMB susceptibility ([12]).
(§2) The strains used in this study include S. aureus strain JE2 (plasmid-cured derivative of USA300 LAC) and all derivative strains within the Nebraska Transposon Mutant Library (NTML), consisting of 1,920 unique transposon mutants with inactivation of nonessential genes ([15]). The bursa aurealis transposon used to create the collection contains the resistance cassette ermB, which confers resistance to erythromycin ([15]). Additionally we used S. aureus SA113 and two derivatives, SA113 ΔdltA ([9]) and SA113 ΔmprF ([10]). All bacterial strains were cultured at 37°C in tryptic soy broth (TSB) or on tryptic soy agar (TSA), with antimicrobial agents added as indicated. Two methods have been employed to determine MICs to various antimicrobial agents. (i) A 2-fold broth microdilution assay in TSB (100 µl) with an initial inoculum of approximately 5 × 10^5 cells/ml was employed to determine the MICs of polymyxin B sulfate (Sigma), gallidermin (Santa Cruz Biotechnology), nisin (Sigma), bacitracin (Sigma), and LL-37 (Isca Biochemicals). (ii) An Etest (BioMérieux) performed on TSA plates was employed to determine MICs for polymyxin B, colistin, ciprofloxacin, oxacillin, linezolid, gentamicin, vancomycin, and daptomycin. The MIC was determined upon incubation at 37°C for 22 h. When indicated, the Etest (BioMérieux) was performed on Mueller-Hinton agar plates (cation adjusted for calcium and magnesium).

[2] = tested on: S. aureus JE2 atpG transposon mutant (SAUSA300_2059); settings: Etest on TSA
From the text: as §1, §2

[3] = tested on: S. aureus JE2 atpH transposon mutant (SAUSA300_2061); settings: Etest on TSA
From the text: as §1, §2

[4] = tested on: S. aureus JE2 cbiO transposon mutant (SAUSA300_2176); settings: Etest on TSA, 37°C, 22 h
From the text: as §1, §2

[5] = tested on: S. aureus JE2 graS transposon mutant (SAUSA300_0646); settings: Etest on TSA
From the text: as §1, §2

[6] = tested on: S. aureus JE2 lspA transposon mutant (SAUSA300_1089); settings: Etest on TSA, 37°C, 22 h
From the text: as §1, §2

[7] = tested on: S. aureus JE2 transposon mutant SAUSA300_0918 (diacylglycerol glucosyltransferase); settings: Etest on TSA, 37°C, 22 h
From the text: as §1, §2

[8] = tested on: S. aureus JE2 transposon mutant SAUSA300_0980 (hypothetical protein); settings: Etest on TSA, 37°C, 22 h
From the text: as §1, §2

[9] = tested on: S. aureus JE2 transposon mutant SAUSA300_1254 (hypothetical protein); settings: Etest on TSA, 37°C, 22 h
From the text: as §1, §2

[10] = tested on: S. aureus JE2 transposon mutant SAUSA300_1495 (hypothetical protein); settings: Etest on TSA, 37°C, 22 h
From the text: as §1, §2

[11] = tested on: S. aureus JE2 transposon mutant SAUSA300_1785 (putative ABC transporter protein EcsB); settings: Etest on TSA, 37°C, 22 h
From the text: as §1, §2

[12] = tested on: S. aureus JE2 transposon mutant SAUSA300_1802 (hypothetical protein); settings: Etest on TSA, 37°C, 22 h
From the text: as §1, §2

[13] = tested on: S. aureus JE2 trkA transposon mutant (SAUSA300_0988); settings: Etest on TSA, 37°C, 22 h
From the text: as §1, §2

[14] = tested on: S. aureus JE2 vraS transposon mutant (SAUSA300_1866); settings: Etest on TSA, 37°C, 22 h
From the text: as §1, §2

[15] = tested on: S. aureus JE2 yajC transposon mutant (SAUSA300_1594); settings: Etest on TSA, 37°C, 22 h
From the text: as §1, §2

With CC[C@H](C)CCCCC(=O)N[C@@H](CCN)C(=O)N[C@H](C(=O)N[C@@H](CCN)C(=O)N[C@H]1CCNC(=O)[C@H]([C@@H](C)O)NC(=O)[C@H](CCN)NC(=O)[C@H](CCN)NC(=O)[C@H](CC(C)C)NC(=O)[C@@H](Cc2ccccc2)NC(=O)[C@H](CCN)NC1=O)[C@@H](C)O [Polymyxin B, polymyxin B] (X1-[Dab]T[Dab][Dab][Dab][dF]L[Dab][Dab]T; lactam 4-C (inferred); N-terminus assumed) the MIC ([1]; 37°C, 22 h, atpB mutant) was 16 µg/mL (≈ 13.3 µM), the “fold reduction in MIC relative to WT” value ([1]; atpB mutant vs WT JE2) was 8 fold and the MIC ([2]; 37°C, 22 h, atpG mutant) was 16 µg/mL (≈ 13.3 µM). For the same compound, the “fold reduction in MIC relative to WT” value ([2]; atpG mutant vs WT JE2) was 8 fold, the MIC ([3]; 37°C, 22 h, atpH mutant) was 16 µg/mL (≈ 13.3 µM) and the “fold reduction in MIC relative to WT” value ([3]; atpH mutant vs WT JE2) was 8 fold. The MIC [4] was 48 µg/mL (≈ 39.9 µM), the MIC ([5]; 37°C, 22 h, graS mutant) was 24 µg/mL (≈ 19.9 µM) and the “fold reduction in MIC relative to WT” value ([5]; graS mutant vs WT JE2) was 8 fold. The MIC [6] was 64 µg/mL (≈ 53.2 µM), the MIC [7] was 64 µg/mL (≈ 53.2 µM) and the MIC [8] was 48 µg/mL (≈ 39.9 µM). It also gave an MIC [9] of 48 µg/mL (≈ 39.9 µM), an MIC [10] of 64 µg/mL (≈ 53.2 µM) and an MIC [11] of 48 µg/mL (≈ 39.9 µM). The MIC [12] was 64 µg/mL (≈ 53.2 µM), the MIC [13] was 48 µg/mL (≈ 39.9 µM) and the MIC [14] was 64 µg/mL (≈ 53.2 µM). It also gave an MIC [15] of 64 µg/mL (≈ 53.2 µM).
